This is an account of results in US20090142347A1, “Tissue-Nonspecific Alkaline Phosphatase (TNAP): a Therapeutic Target for Arterial Calcification” (THE BURNHAM INSTITUTE FOR MEDICAL RESEARCH, priority 2004, published 2009).

By Ki is commonly meant the dissociation constant of the complex between target and ligand, obtained from inhibition or displacement.

Read-outs that look alike come from different tables or passages of the source.

For data set [1], the target named is Recombinant human FLAG-TNAP (Homo sapiens, UniProt P05186). The data set can be described thus: Chemical library screening, TNAP pNPP microtiter plate assay. The following applies: for inhibition response: positive controls, 0.5 mM pNPP, pH 9.8, concentration not given.
A further data set has as its target T1, chTNALP (Gallus gallus, UniProt Q92058).
T1 sequence (Q92058 17-498): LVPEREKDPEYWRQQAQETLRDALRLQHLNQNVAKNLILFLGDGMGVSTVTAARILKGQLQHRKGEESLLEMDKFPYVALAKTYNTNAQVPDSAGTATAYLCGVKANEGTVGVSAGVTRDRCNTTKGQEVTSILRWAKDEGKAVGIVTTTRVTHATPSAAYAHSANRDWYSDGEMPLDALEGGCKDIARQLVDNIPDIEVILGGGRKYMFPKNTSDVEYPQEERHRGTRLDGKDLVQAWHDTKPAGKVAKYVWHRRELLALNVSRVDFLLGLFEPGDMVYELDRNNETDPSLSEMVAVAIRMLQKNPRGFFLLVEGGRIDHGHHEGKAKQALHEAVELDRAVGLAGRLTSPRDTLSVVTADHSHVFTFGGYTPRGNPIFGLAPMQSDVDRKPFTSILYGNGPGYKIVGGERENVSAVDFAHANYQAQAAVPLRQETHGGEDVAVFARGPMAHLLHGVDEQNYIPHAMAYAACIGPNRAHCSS
Kind of data set: Ki of uncompetitive inhibitors (pNPP substrate). The class given is biochemical, chicken. An excerpt: (See Kozlenkov A, et al., 2002). […] TNAP and PLAP structures were superimposed and the amino acid differences within a 12 Å radius around the catalytic Zn1 ion were pinpointed. The difference between human TNAP and chicken TNAP were also mapped because it is reported that chicken TNAP is much less susceptible to levamisol than is human TNAP. In total, six positions with amino acid differences were found, which could be clustered into two groups. […] In addition, […] and […] were also investigated.

Data set [2] concerns bovine VSMC calcification. The following applies: Shioi et al., 1995; cited from earlier work.
The next data set concerns the target T2, hPLALP (G108, G429) (Homo sapiens, UniProt P05187, E451G/Q130G).
T2 construct: made in house; host or cells: COS-7 (given only for the TNAP-Flag constructs)
Kind of data set: Ki of uncompetitive inhibitors (pNPP substrate). The class given is biochemical. The following applies: hPLALP mutant (G108, G429); read-out: Ki for various inhibitors. On the procedure: (§1) In brief, samples of the enzymes were added to microtiter plates coated with M2 anti-FLAG antibody, and saturating activities with the substrate pNPP were measured in 1 M DEA/HCl buffer, pH 9.8, containing 1 mM MgCl2 and 20 .micro.M ZnCl2.

The next data set concerns the target T3, hPLALP (R428, H429) (Homo sapiens, UniProt P05187, D450R/E451H).
T3 construct: made in house; host or cells: COS-7 (given only for the TNAP-Flag constructs)
Kind of data set: Ki of uncompetitive inhibitors (pNPP substrate). The class given is biochemical. The following applies: hPLALP mutant (R428, H429); read-out: Ki for various inhibitors. On the procedure:
as §1

The target in another data set is T4, hPLALP S119 (Homo sapiens, UniProt P05187, N141S).
T4 construct: made in house; host or cells: COS-7 (given only for the TNAP-Flag constructs)
Kind of data set: Ki of uncompetitive inhibitors (pNPP substrate). The format is biochemical. The following applies: hPLALP mutant S119; read-out: Ki for various inhibitors. As for the experimental part: as §1

A further data set has as its target T5, hPLALP H429 (Homo sapiens, UniProt P05187, E451H).
T5 construct: made in house; host or cells: COS-7 (given only for the TNAP-Flag constructs)
Kind of data set: Ki of uncompetitive inhibitors (pNPP substrate). The class given is biochemical. The following applies: hPLALP mutant H429; read-out: Ki for various inhibitors. As for the experimental part:
as §1

The next data set concerns the target T6, hPLALP R428 (Homo sapiens, UniProt P05187, D450R).
T6 construct: made in house; host or cells: COS-7 (given only for the TNAP-Flag constructs)
The data set can be described thus: Ki of uncompetitive inhibitors (pNPP substrate). The format is biochemical. The following applies: hPLALP mutant R428; read-out: Ki for various inhibitors. As for the experimental part:
as §1

In a further data set the target is T7, hPLALP E107 (Homo sapiens, UniProt P05187, F129E).
T7 construct: made in house
The data set can be described thus: Ki of uncompetitive inhibitors (pNPP substrate). The class given is biochemical. The following applies: hPLALP mutant E107; read-out: Ki for various inhibitors. As for the experimental part:
as §1

For the next data set, the target named is T8, hPLALP G108 (Homo sapiens, UniProt P05187, Q130G).
T8 construct: made in house; host or cells: COS-7 (given only for the TNAP-Flag constructs)
Kind of data set: Ki of uncompetitive inhibitors (pNPP substrate). The class given is biochemical. The following applies: hPLALP mutant G108; read-out: Ki for various inhibitors. On the procedure:
as §1

The next data set addresses T9, hPLALP D165 (Homo sapiens, UniProt P05187, N187D).
T9 construct: made in house; host or cells: COS-7 (given only for the TNAP-Flag constructs)
The data set can be described thus: Ki of uncompetitive inhibitors (pNPP substrate). The class given is biochemical. The following applies: hPLALP mutant D165; read-out: Ki for various inhibitors. On the procedure:
as §1

The target in a further data set is T10, hPLALP (E107, G108) (Homo sapiens, UniProt P05187, F129E/Q130G).
T10 construct: made in house; host or cells: COS-7 (given only for the TNAP-Flag constructs)
The data set can be described thus: Ki of uncompetitive inhibitors (pNPP substrate). The format is biochemical. The following applies: hPLALP mutant (E107, G108); read-out: Ki for various inhibitors. On the procedure:
as §1

The target in the next data set is T11, hPLALP (Homo sapiens, UniProt P05187).
T11 construct: made in house
The data set can be described thus: Ki of uncompetitive inhibitors (pNPP substrate). The format is biochemical. The following applies: read-out: Ki for various inhibitors. On the procedure:
as §1

For the next data set, the target named is T12, hPLALP (E107, G429) (Homo sapiens, UniProt P05187, E451G/F129E).
T12 construct: made in house; host or cells: COS-7 (given only for the TNAP-Flag constructs)
The data set can be described thus: Ki of uncompetitive inhibitors (pNPP substrate). The following applies: hPLALP mutant (E107, G429); read-out: Ki for various inhibitors. The format is biochemical. As for the experimental part: as §1

The test system of the next data set is wild-type osteoblasts. The following applies: wild-type osteoblasts treated with exogenous PPi; RT-PCR. An excerpt: To determine whether affecting the function of either NPP1 or ANK would have beneficial consequences on hypophosphatasia by reducing the amounts of extracellular PPi in the Akp2−/− mice, we bred either Enpp1−/− or ank/ank mice to the Akp2−/− mice. […] Hypophosphatasia arises from deficits in TNAP activity, resulting in an increase in PPi levels and concomitant increase in OPN levels.

Another data set concerns Akp2−/− mice. The following applies: Narisawa et al., 2001; cited from earlier work.
In data set [3] the test system is Enpp1−/− and ank/ank mice. The following applies: subcutaneous, ALZET osmotic pumps, 10 μg/g/day, compared to control mice. On the procedure: Flexibility was measured after euthanasia by determining the degree to which the root of the tail could be pulled back towards the neck, shoulders or lumbar spine until resistance prevented further flexing.
Tetramisole was delivered via ALZET osmotic pumps (Durect Corporation, Cupertino, Calif.) at a dose of 10 μg/g/day.

The conditions of data set [4]: dose of 30 micrograms/g BW; results not shown. From the text: (§2) In one example of this pharmacological study tetramisole will be used. […] For ApoE−/− mice arterial calcification is established by 3-months of age. Thus, the pump can feasibly be planted as early as 1-month of age, allowing treatment to begin at least as early.
Another data set has as its system MC3T3-E1 cells.
Description: as §2

In data set [5] the test system is TNAP activity in Enpp1−/− and ank/ank derived VSMC. The following applies: Enpp1−/− and ank/ank derived VSMC in vitro, tetramisole 0.125 mM, 3 weeks (FIG. 5). From the text:
Left panel: A) immunofluorscent detection of smooth muscle alpha-actin. VSMCs were isolated from WT aorta by collagenase digestion, all cells were stained for actin filaments (F-actin) by rhodamine phalloidin (red), and VSMCs were stained using a specific FITC-conjugated monoclonal anti-SM-alpha-actin (green). B) Proportion of cells staining positive for SM-alpha-actin. C) Total RNA was isolated and SM alpha-actin was detected by RT-PCR analysis. Middle panel: VSMCs isolated from WT, Enpp1−/− and ank/ank mice were cultured in the presence of beta-glycerophosphate for 4 weeks. Cells were then stained for TNAP activity (pink) and using von Kossa staining, mineral was detected (black/brown). The area of the culture well in which mineralization was present was quantified by using a point-counting method in which the plate was placed on a grid (divided into 10 mm×10 mm squares) and visualized using a dissecting microscope, the percent area occupied by mineral was assessed by counting the occurrences where the presence of mineral coincided with intercepts on the grid.

Chain of Recombinant human FLAG-TNAP (P05186 18-501 limits assumed): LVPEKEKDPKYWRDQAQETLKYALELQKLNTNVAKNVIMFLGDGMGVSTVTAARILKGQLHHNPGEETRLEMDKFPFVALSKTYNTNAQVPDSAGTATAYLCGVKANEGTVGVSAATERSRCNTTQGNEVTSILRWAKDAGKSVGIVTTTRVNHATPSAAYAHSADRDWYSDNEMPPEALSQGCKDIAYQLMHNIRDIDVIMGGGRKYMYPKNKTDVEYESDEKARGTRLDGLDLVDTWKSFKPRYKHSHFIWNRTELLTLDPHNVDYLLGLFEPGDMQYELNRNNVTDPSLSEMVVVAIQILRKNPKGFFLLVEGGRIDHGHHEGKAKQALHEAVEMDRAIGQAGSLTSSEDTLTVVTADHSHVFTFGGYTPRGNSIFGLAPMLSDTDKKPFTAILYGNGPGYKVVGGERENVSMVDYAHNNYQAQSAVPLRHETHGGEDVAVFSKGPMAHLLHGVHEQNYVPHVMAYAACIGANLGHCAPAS
T7 sequence (P05187 23-506 F129E limits assumed): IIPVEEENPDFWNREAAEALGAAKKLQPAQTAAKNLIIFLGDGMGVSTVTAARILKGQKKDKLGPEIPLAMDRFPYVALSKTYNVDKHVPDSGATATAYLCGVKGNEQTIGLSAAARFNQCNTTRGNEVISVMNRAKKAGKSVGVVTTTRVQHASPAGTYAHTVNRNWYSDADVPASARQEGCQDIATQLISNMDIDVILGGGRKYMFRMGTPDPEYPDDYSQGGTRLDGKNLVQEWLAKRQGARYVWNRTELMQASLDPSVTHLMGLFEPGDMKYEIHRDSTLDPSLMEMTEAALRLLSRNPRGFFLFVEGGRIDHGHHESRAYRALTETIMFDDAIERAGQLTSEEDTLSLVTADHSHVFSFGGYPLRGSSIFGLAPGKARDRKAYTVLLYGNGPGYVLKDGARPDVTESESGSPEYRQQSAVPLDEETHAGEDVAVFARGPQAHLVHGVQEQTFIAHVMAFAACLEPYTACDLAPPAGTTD
T6 sequence (P05187 23-506 D450R limits assumed): as the sequence (P05187 23-506 F129E limits assumed) above, with E107F, D428R counted along it
T4 sequence (P05187 23-506 N141S limits assumed): as the sequence (P05187 23-506 F129E limits assumed) above, with E107F, N119S counted along it
T11 sequence (P05187 23-506 limits assumed): as the sequence (P05187 23-506 F129E limits assumed) above, with E107F counted along it
T2 sequence (P05187 23-506 Q130G/E451G limits assumed): as the sequence (P05187 23-506 F129E limits assumed) above, with E107F, Q108G, E429G counted along it
T9 sequence (P05187 23-506 N187D limits assumed): as the sequence (P05187 23-506 F129E limits assumed) above, with E107F, N165D counted along it
T12 sequence (P05187 23-506 F129E/E451G limits assumed): as the sequence (P05187 23-506 F129E limits assumed) above, with E429G counted along it
T8 sequence (P05187 23-506 Q130G limits assumed): as the sequence (P05187 23-506 F129E limits assumed) above, with E107F, Q108G counted along it
T10 sequence (P05187 23-506 F129E/Q130G limits assumed): as the sequence (P05187 23-506 F129E limits assumed) above, with Q108G counted along it
T3 sequence (P05187 23-506 D450R/E451H limits assumed): as the sequence (P05187 23-506 F129E limits assumed) above, with E107F, D428R, E429H counted along it
T5 sequence (P05187 23-506 E451H limits assumed): as the sequence (P05187 23-506 F129E limits assumed) above, with E107F, E429H counted along it

On to `c1ccc([C@H]2CN3CCSC3=N2)cc1` [Levamisole], for which the inhibition response entry in [1] is listed as “around 50%”. Further, the “inhibition of the enzymatic activity of TNAP (confirmed screening hits)” value in [1] (screen of 53,080 compounds) is “inhibit the enzymatic activity of TNAP”. Also, the inhibition constant (Ki) at chTNALP (read-out: Ki for various inhibitors) was 136 ± 20 µM; on hPLALP (G108, G429) it was 480 ± 60 µM; at hPLALP (R428, H429) it was 34 ± 1 µM; on hPLALP S119, 630 ± 90 µM; at hPLALP H429, 50 ± 3 µM; on hPLALP R428, 460 ± 40 µM. The inhibitory constant (Ki) was 1050 ± 40 µM at hPLALP E107; 458 ± 30 µM at hPLALP G108; 680 ± 140 µM on hPLALP D165; 1150 ± 60 µM on hPLALP (E107, G108); 563 ± 56 µM at hPLALP; 535 ± 80 µM on hPLALP (E107, G429). The “bovine VSMC calcification” value in data set [2] is on record as “blocks bovine VSMC calcification in a dose-dependent manner”.

Regarding `O=P(O)(O)OP(=O)(O)O` [PPi, Inorganic pyrophosphate], in the data set on wild-type osteoblasts, the “NPP1 and ANK expression” value is “decreased NPP1 and ANK expression”; the OPN expression entry is reported as “increase in OPN expression”.

With `Cn1c(=O)c2[nH]cnc2n(C)c1=O` [Theophylline, theophylline], the Ki at chTNALP (Ki for various inhibitors, (1)*, (1)*: 1 mM pNPP) stood at 393 ± 150 µM; on chTNALP (Ki for various inhibitors, (20)*, (20)*: 20 mM pNPP) it was 111 ± 8 µM.

For `Cc1ncc(CO)c(C=O)c1O` [pyridoxal], in the data set on Akp2−/− mice, the “apoptosis in the thymus and the lumbar nerve roots” value was “reverses apoptosis”; the epileptic seizures entry is “suppresses the epileptic seizures”.

As for `c1ccc(C2CN3CCSC3=N2)cc1` (stereo not drawn) [tetramisole], the “flexibility of the spine” value in data set [3] is “enhanced flexibility of the spine”. Besides, the tolerability result in [4] is on record as “well tolerated”. Moreover, in the data set on MC3T3-E1 cells, the PPi levels entry is listed as “raise PPi levels”. In addition, the “TNAP activity in VSMC” value is listed as “inhibits TNAP activity” in data set [5] and “normalize TNAP activity” in data set [5] (listed as Tetramisole).

In the case of phosphate, the inhibition response entry in [1] is given as “around 50%”.
